Data as given in patent US20240208939A1, “TREATMENT OF AUTOIMMUNE AND INFLAMMATORY DISORDERS WITH INHIBITORS OF BET FAMILY BDII BROMODOMAIN” (POSEIDON INNOVATION 1, INC., priority 2022, published 2024).

Tests used:
MCP-1 = assay: PBMC MCP-1 HTRF Assay; assay type: cell-based; conditions: LPS 200 ng/mL, 24 hours
Protocol: The cryopreserved PBMC cells were thawed in a 37° C. water bath immediately after taking out from liquid nitrogen storage. A sterile pipette was used to transfer the content to sterile […] centrifuge tube containing […] of complete growth medium (Gibico 1640) and centrifuge at 300×g for 10 min. Supernatant was discarded, and cell pellet was resuspended in 10 mL of complete growth media in a sterile 15 mL tube. The cells were rested for 1 h at 37° C. (1×10^6 cells/mL). The cells were spinned down at 300×g for 10 minutes after 1 h. Supernatant was discard, and cell pellet was resuspended in complete growth medium, the cells number and viability were measured by AO/PI staining. In a 384-well white plate, PBMCs at 25 k cells/well (15 μl per well) were seeded with Gibico 1640 medium. The compound stock was serial diluted into […] by 3-fold dilution. 20 nL DMSO, 20 nL test compounds DMSO stock (serial diluted) were transferred in assay plate by using ECHO550, incubate for 30 min at 37° C., 5% CO2. LPS was diluted by Gibico 1640 medium.add 5 μl per well. The final concentration (200 ng/mL) was incubated for 24 hours at 37° C. with 5% CO2.
For MCP-1 HTRF, 2.5 μl/well MCP-1 donor antibody and 2.5 μl/well MCP-1 acceptor antibody were added into 384 well plate, following by centrifuging at 190×g for 1 min and incubating at room temperature for 2 h. The plate was read on the Envision.

[1] = test system: IMQ-mouse model of psoriasis; assay: IMQ induced psoriasis mouse model, PASI scoring; assay type: in vivo, mice; conditions: daily dosing po, compared to vehicle treatment
Protocol: Except for the control group, all other groups received a daily topical dose of 60 mg of 5% commercially available IMQ cream on the shaved back for 7 consecutive days. The same amount of Vaseline was applied to the same areas of the animals in the negative control group. Vehicle and DF-6129 were dosed daily (po) for 8 days, from Day −1 to Day 7. Dosing time: 1 hour prior to IMQ application. Psoriasis Area and Severity Index (PASI) Scoring The Psoriasis Area and Severity Index (PASI) scoring system was used to evaluate the severity of skin inflammation of the mouse model. Erythema, scaling, and skin thickness was scored independently from 0-4 as (daily scoring) as below: [table] All statistical analysis were conducted, and the level of significance was set at P<0.05. The group means and standard deviation were calculated for all measurement parameters as study designed. One-way ANOVA comparisons among the groups was performed with software SPSS 16.0.

IL-22 = assay: Back skin PCR analysis in IMQ-treated mice, IL-22 mRNA; assay type: in vivo; conditions: 10 mg/kg, compared with vehicle treatment alone
Protocol: (§1) Except for the control group, all other groups received a daily topical dose of 60 mg of 5% commercially available IMQ cream on the shaved back for 7 consecutive days. The same amount of Vaseline was applied to the same areas of the animals in the negative control group.
(§2) Vehicle and DF-6129 were dosed daily (po) for 8 days, from Day −1 to Day 7. Dosing time: 1 hour prior to IMQ application.
(§3) Animals were euthanized 4 h post last dosing on day 7 (3 h after applying with imiquimod cream) and back skin was be collected. The skin tissues were divided into two parts. One half was flash frozen and stored at −80° C. for PCR analysis (IL-17A, IL-17F, IL-22 and IL-23), the other half was fixed in 10% formalin for HE staining and scoring.
(§4) All statistical analysis were conducted, and the level of significance was set at P<0.05. The group means and standard deviation were calculated for all measurement parameters as study designed. One-way ANOVA comparisons among the groups was performed with software SPSS 16.0.

IL-17 = assay: Serum IL-17 ELISA in IMQ-mouse model of psoriasis; assay type: in vivo, mice; conditions: compared to vehicle treatment alone, 4 h post last dosing on day 7
Protocol: Except for the control group, all other groups received a daily topical dose of 60 mg of 5% commercially available IMQ cream on the shaved back for 7 consecutive days. The same amount of Vaseline was applied to the same areas of the animals in the negative control group. Vehicle and DF-6129 were dosed daily (po) for 8 days, from Day −1 to Day 7. Dosing time: 1 hour prior to IMQ application. Animals were euthanized 4 h post last dosing on day 7 (3 h after applying with imiquimod cream). Whole Blood was collected via cardiac puncture from all group animals. Serum samples were separated by centrifugation at 4° C. at 8000 g for 5 minutes, total 70 samples. All serum samples were stored at −80° C. for IL-17 analysis. All statistical analysis were conducted, and the level of significance was set at P<0.05. The group means and standard deviation were calculated for all measurement parameters as study designed. One-way ANOVA comparisons among the groups was performed with software SPSS 16.0.

IL-17A = assay: Back skin PCR analysis in IMQ-treated mice, IL-17A mRNA; assay type: in vivo; conditions: 10 mg/kg, compared with vehicle treatment alone
Protocol: as §1, §2, §3, §4

BRD4 BD2 = target: T1, BRD4 BD2 (Homo sapiens, UniProt O60885); assay: Target Engagement Intracellular BET BRD Assay (NanoBRET); assay type: cell-based; conditions: read-out: BRD4 BD2 TE IC50
T1 construct: BD2 TE; expressed in transfected cells
Protocol: 3× Complete Substrate plus Inhibitor Solution in Assay Medium (Opti-MEM® I Reduced Serum Medium, no phenol red, and no serum) was prepared just before measuring BRET. This solution consisted of a 1:166 dilution of NanoBRET™ Nano-Glo® Substrate plus a 1:500 dilution of Extracellular NanoLuc® Inhibitor in Assay Medium. For a 96-well plate, 30 μl of NanoBRET™ Nano-Glo® Substrate, 10 μl of Extracellular NanoLuc® Inhibitor and 4,960 μl of Assay Medium were mixed to produce 5 ml of 3× Complete Substrate plus Inhibitor Solution, followed with gently mixing by inversion 5-10 times in a conical tube. (The final concentration of Extracellular NanoLuc® Inhibitor in the 3× solution was 60 μM, for a working concentration of 20 μM. Use 3× Complete Substrate plus Inhibitor Solution within 2 hours. Discard any remaining solution).
50 μl of 3× Complete Substrate plus Inhibitor Solution were added to each well of the 96-well plate, followed by incubation for 2-3 minutes at room temperature. Donor emission wavelength (e.g., 450 nm) and acceptor emission wavelength (e.g., 610 nm) were measured by using the GloMax® Discover System or other NanoBRET™ Assay-compatible luminometer (it is recommended measuring BRET within 10 minutes after adding NanoBRET™ Nano-Glo™ Substrate plus Extracellular NanoLuc® Inhibitor Solution. However, BRET can be measured for up to 2 hours, but there will be some loss of luminescence signal).
To generate raw BRET ratio values, the acceptor emission value (e.g., 610 nm) was divided by the donor emission value (e.g., 450 nm) for each sample [to correct for background, the BRET ratio was substracted in the absence of tracer (average of no-tracer control samples) from the BRET ratio of each sample]. Raw BRET units were converted to milliBRET units (mBU) by multiplying each raw BRET value by 1,000. NanoBRET™ ratio equation, including optional background correction is shown below:
BRET Ratio=[(Acceptorsample÷Donorsample)−(Acceptorno-tracer control÷Donorno-tracer control)]×1,000.

IL-23 = assay: Back skin PCR analysis in IMQ-treated mice, IL-23 mRNA; assay type: in vivo; conditions: 10 mg/kg, compared with vehicle treatment alone
Protocol: as §1, §2, §3, §4

IL-17A, IL17F and IL-22 = conditions: Gilan et al. 2020; cited from earlier work

IC50 (MCP-1) | IC50 (BRD4 BD2) | SMILES | erythema [1] | scaling [1] | skin thickening [1] | total psoriasis (PASI) score [1] | mRNA levels of IL-22 from the back skin (IL-22) | serum IL-17 levels (IL-17) | mRNA levels of IL-17A from the back skin (IL-17A) | mRNA levels of IL-23 from the back skin (IL-23) | expression of disease relevant pro-inflammatory genes, including IL-17A, IL17F and IL-22 (IL-17A, IL17F and IL-22)
1.51 nM | 0.323 nM | Cn1ccn(-c2ccc(-c3cc(F)cc(-c4cccc(N5CCN(C(C)(C)C)CC5)c4)c3O)cc2Cl)c1=O [Example I-1, 1-(3″-(4-(tert-butyl)piperazin-1-yl)-3-chloro-5′-fluoro-2′-hydroxy-[1,1′:3′,1″- terphenyl]-4-yl)-3-methyl-1,3-dihydro-2H-imidazol-2-one] | significant decreases | significant decreases | significant decreases | significantly reduced | significantly reduced | significantly reduced | significantly reduced | significantly reduced | 
 |  | CNC(=O)c1cc(C(=O)NC2CC2)cn(Cc2ccccc2)c1=O [GSK620] |  |  |  |  |  |  |  |  | reduced the expression
